Measured values published in patent publication US11203608B2, “Platinum-containing compounds, and related compositions and uses thereof” (Massachusetts Institute of Technology, priority 2019, dated 2021).

Assays:
[1] = tested on: OVCAR8-OXR oxaliplatin-resistant human ovarian cancer cell line; test: Cell growth, resazurin assay, OVCAR8-OXR; conditions: 72-h exposure; for Fold Resistance (IC50, OVCAR8OXR vs OVCAR8): based on IC50 values
Protocol: Cells were cultured in 10 mL of Advanced DMEM/F12 (ADMEM/F12), supplemented with 5% FBS, 2 mM GlutaMAX, and 1% Penicillin-Streptomycin in 10 cm tissue culture plates. Cells were then plated into 96-well plates with about 2.5×10^3 cells per well. Cells were plated with 200 μL per well of ADMEM/F12 supplemented with 5% FBS, 2 mM GlutaMAX, and 1% Penicillin-Streptomycin. […] The cells were then cultured for 72 hours following drug treatment, and cell growth was measured by resazurin assay.

[2] = tested on: HT-29 human colorectal adenocarcinoma; test: Cell growth, resazurin assay, HT-29; format: cell-based; conditions: 96-h exposure (table title); read-out: IC50 HT-29 (colon)
Protocol: (§4) Cells were cultured in 10 mL of Advanced DMEM/F12 (ADMEM/F12), supplemented with 5% FBS, 2 mM GlutaMAX, and 1% Penicillin-Streptomycin in 10 cm tissue culture plates. Cells were then plated into 96-well plates with about 2.5×10^3 cells per well. Cells were plated with 200 μL per well of ADMEM/F12 supplemented with 5% FBS, 2 mM GlutaMAX, and 1% Penicillin-Streptomycin. Cells were treated with dose responses of doxorubicin, oxaliplatin, or doxaliplatin upon plating. The cells were then cultured for 72 hours following drug treatment, and cell growth was measured by resazurin assay.

[3] = tested on: APC−/−; KRASG12D/WT; P53−/−; MSH2−/− (AKP-MSH2) organoids; test: Viability of AKP-MSH2 murine colorectal cancer organoids; format: cell-based
Source text: (§1) To generate 4. APC^−/−; KRAS^G12D/WT; P53^−/−; (AKP) and 5. APC^−/−; KRAS^G12D/WT; P53^−/−; MSH2^−/− (AKP-MSH2) colon cancer organoids, colonic crypts were isolated and colon organoids were generated from the following mouse genotypes on a C57Bl/6 background: 4. LSL-KRAS^G12D/WT; P53^fl/fl mice and 5. LSL-KRAS^G12D; P53^fl/fl; MSH2^fl/fl mice. Subsequently, the pSECC-APC plasmid (carrying Cre, Cas9, and sgAPC) was transfected into each of the above two genotypes of colon organoids. Following pSECC-APC transfection, Wnt/Rspo withdrawal was performed and surviving (APC^−/−) single organoids were cloned and PCR genotyped for Cre mediated deletion of p53 and/or MSH2, and for Cre mediated activation of oncogenic KRAS^G12D.
(§2) Twenty four hours after seeding the organoids, a media change was performed and dose responses of oxaliplatin, doxorubicin and doxaliplatin were added. […] Organoids were cultured in Advanced DMEM/F12 supplemented with 2 mM GlutaMAX, 1% Penicillin-Streptomycin, 2% B27, and Y-27632 (10 μM).

[4] = tested on: APC−/−; KRASG12D/WT; P53−/− (AKP) organoids; test: Viability of AKP murine colorectal cancer organoids; format: cell-based
Source text: as §1, §2

[5] = tested on: HL60 human leukemia cell line; test: Cell growth, resazurin assay, HL60; format: cell-based; conditions: 96-h exposure (table title)
Protocol: as §4

[6] = tested on: A2780 human ovarian cancer cell line
Protocol: ICP-MS was performed on an Agilent 7900 ICP-MS in helium mode.
The cells in a six-well plate were treated with oxaliplatin, doxaliplatin, or a mixture of doxorubicin and oxaliplatin at indicated concentration in 2 mL of Advanced DMEM/F12 (ADMEM/F12), supplemented with 5% FBS, 2 mM GlutaMAX, and 1% Penicillin-Streptomycin. After three hours, the media were removed. The cells were washed with xl PBS buffer containing EDTA (100 μM, 4 mL×2). To each well, MilliQ water (1.0 mL) was added. After 15 min, the cells were suspended. A portion of the resulting cell lysate (900 μL) was transferred to an Eppendorf tube. The samples were frozen in liquid nitrogen and thawed at room temperature. This procedure was repeated for three times. The insoluble lysate was pelleted (10000 rpm for 10 min). […] Pierce 660 nm Protein solution (200 μL) was added to each well. An aliquot of the lysate (14.2 μL) was added to each well. The plate was shaken and read on a plate reader. The remaining samples were frozen at liquid nitrogen temperature and lyophilized. The dried material was digested with Aristar® ultrapure concentrated nitric acid (70%) at 70° C. for one hour. An aliquot of this solution (142 μL) was mixed with molecular biology grade water (2000 μL) and a terbium internal standard (40 μL, 100 ppb). The platinum content was then determined using an Agilent 7900 ICP-MS in helium mode. The concentration of platinum in the cells was normalized to measured protein concentration described above.

[7] = tested on: OVCAR8 human ovarian cancer cell line; test: Cell growth, resazurin assay, OVCAR8; format: cell-based; conditions: 72-h exposure
Protocol: as §4

[8] = tested on: A-tdt, AP-tdt, and AKP-tdt murine colorectal cancer organoids; test: Cellular toxicity across the A-tdt, AP-tdt and AKP-tdt organoid series; format: cell-based; conditions: series of A-tdt
Source text: (§3) Colonic crypts were isolated and colon organoids were generated from the following mouse genotypes on a C57Bl/6 background: 1. Rosa-LSL-TdTomato (hereafter LSL-tdt), 2. P53^f1/f1; LSL-tdt, and 3. LSL-KRAS^G12D/WT; P53^fl/fl; LSL-tdt mice. Subsequently, the pSECC-APC plasmid (carrying Cre, Cas9, and sgAPC) was transfected into each of the above three genotypes of colon organoids. This transfection strategy generated, in a single step, the following colorectal cancer organoids, including 1. APC^−/−; TdTomato^+ (A-tdt), 2. APC^−/−; P53^−/−; TdTomato^+ (AP-tdt), and 3. APC^−/−; KRAS^G12D/WT; P53^−/−; TdTomato^+ (AKP-tdt). Organoids of the desired genotype were selected for by Wnt/Rspo withdrawal for APC^−/−, Nutlin-3 addition for P53^−/−, and EGF withdrawal for KRAS^G12D.
Twenty four hours after seeding the organoids, a media change was performed and dose responses of oxaliplatin, doxorubicin and doxaliplatin were added. Forty eight hours after treatment, cell growth was evaluated by resazurin assay. Organoids were cultured in Advanced DMEM/F12 supplemented with 2 mM GlutaMAX, 1% Penicillin-Streptomycin, 2% B27, and Y-27632 (10 μM).

[9] = tested on: cisplatin-resistant A2780CIS human ovarian cancer cell line; test: Cell growth, resazurin assay, A2780CIS; format: cell-based; conditions: 72-h exposure
Protocol: as §4

[10] = tested on: MDA-MB-231 human breast adenocarcinoma; test: Cell growth, resazurin assay, MDA-MB-231; format: cell-based; conditions: 96-h exposure (table title)
Protocol: as §4

[11] = tested on: APC−/−; TdTomato+ (A-tdt) organoids; test: Viability of A-tdt murine colorectal cancer organoids, resazurin assay; format: cell-based; conditions: 72-h exposure (table title); read-out: IC50 against A-tdt organoids
Source text: as §3, §2

[12] = tested on: APC−/−; P53−/−; TdTomato+ (AP-tdt) organoids; test: Viability of AP-tdt murine colorectal cancer organoids, resazurin assay; format: cell-based; conditions: 72-h exposure (table title); read-out: IC50 against AP-tdt organoids
Source text: as §3, §2

[13] = tested on: A549 human lung carcinoma; test: Cell growth, resazurin assay, A549; format: cell-based; conditions: 96-h exposure (table title)
Protocol: as §4

[14] = tested on: doxorubicin-resistant A2780ADR human ovarian cancer cell line; test: Cell growth, resazurin assay, A2780ADR; format: cell-based; conditions: 72-h exposure
Protocol: as §4

[15] = tested on: PC3 human prostate adenocarcinoma; test: Cell growth, resazurin assay, PC3; format: cell-based; conditions: 96-h exposure (table title)
Protocol: as §4

[16] = tested on: A2780 human ovarian cancer cell line; test: Cell growth, resazurin assay, A2780; format: cell-based; conditions: A2780, 72-h exposure
Protocol: as §4

[17] = tested on: APC−/−; KRASG12D/WT; P53−/−; TdTomato+ (AKP-tdt) organoids; test: Viability of AKP-tdt murine colorectal cancer organoids, resazurin assay; format: cell-based; conditions: 72-h exposure (table title); read-out: IC50 against AKP-tdt organoids
Source text: as §3, §2

With `COc1cccc2c1C(=O)c1c(O)c3c(c(O)c1C2=O)CC(O)(C(=O)CO)CC3OC1CC(N)C(N)C(C)O1.O=C1[O][Pt][O]C1=O` (stereo not drawn) [DoxPt, Doxaliplatin] the “Fold Resistance (IC50, OVCAR8OXR vs OVCAR8)” value [1] was 1.0 fold, the “Fold Resistance (IC50, OVCAR8OXR vs OVCAR8)” value ([1]; listed as doxaliplatin) was “no change in the IC50 value” and the “Fold Resistance (IC80, OVCAR8OXR vs OVCAR8)” value ([1]; based on IC80 values) was 0.6 fold. For the same molecule, the IC50 ([1]; read-out: IC50 OVCAR8OXR) was 140 ± 10 nM, the IC80 ([1]; read-out: IC80 OVCAR8OXR) was 230 ± 10 nM and the IC50 [2] was 330 nM. The IC50 ([3]; 72-h exposure, read-out: IC50 against AKP-MSH2 organoids) was 78 nM, the “Potency relative to oxaliplatin (by IC50)” value ([3]; AKP-MSH2 organoids) was 28 fold and the IC50 ([4]; 72-h exposure, read-out: IC50 against AKP organoids) was 110 nM. For the same molecule, the “Potency relative to oxaliplatin (by IC50)” value ([4]; AKP organoids) was 13 fold, the IC50 [5] was 160 nM and the “Platinum concentration in treated cells relative to oxaliplatin-treated cells” value [6] was “approximately ten times higher than in oxaliplatin-treated cells”. For the same molecule, the IC50 [7] was 140 ± 10 nM, the IC80 [7] was 370 ± 20 nM and the “Cellular toxicity relative to oxaliplatin” value [8] was “three to ten-fold higher cellular toxicity than oxaliplatin”. The IC50 [9] was 280 nM, the IC90 [9] was 380 nM and the IC95 [9] was 410 nM. For the same molecule, the IC50 [10] was 110 nM, the IC50 [11] was 460 nM and the IC50 [12] was 410 nM. The IC50 [13] was 100 nM, the IC50 [14] was 72 nM and the IC90 [14] was 490 nM. For the same molecule, the IC95 [14] was 670 nM, the IC50 [15] was 92 nM and the IC50 [16] was 16 nM. For the same molecule, the IC90 [16] was 380 nM, the IC95 [16] was 680 nM and the IC50 [17] was 430 nM.
